# Experimental data as given in patent publication US20100144626A1, “Treatment of Multi-Drug Resistant Bacterial Infections” (priority 2006, published 2010).
# Entries after “also recorded” stand apart in the source; their conditions may differ. Like-named read-outs stand apart in the source and are kept apart here.
# How the values were obtained:
# Type in all cases: cell-based
# [1] = test system: Acinetobacter Baumannii ATCC 19606; assay: MIC, agar dilution (BSAC guidelines)
# Procedure: (§1) In example experiments miconazole nitrate, was dissolved in methanol and econazole nitrate and clotrimazole were dissolved in DMSO and methanol respectively. Other solvents that may be used include caster oil, pyridine, DMSO and 0.9% saline. For IV administration agents may be solubilised in polyethoxylated caster oil, or cyclodextrins such as sulfobutylether7-βcyclodextrin or hydroxypropyl-β-cyclodextrin and lactic acid. Minimum inhibitory concentrations (MICs) of a range of clinical and control bacterial organisms were measured according to BSAC (British Society for Antimicrobial Chemotherapy) guidelines, described briefly as follows;
# (§2) Preparation of Agar Plates and Broths
# (§3) Stock solutions of each agent were prepared using the formula:
# (§4) Where P=μg of active compound per mg (μg/mg) • V=volume required (mL) • C=final concentration of solution (mg/L) • W=weight of agent (mg) to be dissolved in volume V (mL)
# (§5) Stock solutions were prepared at concentrations of 1000 mg/L and 100 mg/L. The appropriate amounts of each stock solution were added to separate Petri dishes give the following final concentrations (after the addition of 20 mL molten agar): 128, 64, 32, 16, 8, 4, 2, 1, 0.5, 0.25, 0.12, 0.06, 0.03, 0.015 mg/L.
# (§6) Volumes (20 mL) of cooled molten IST agar (oxoid) was added to each Petri dish and mixed by swirling.
# (§7) After drying, the plates were stored at 4° C. and protected from light. Plates were used on the day of preparation.
# (§8) The test organisms were grown overnight in 5 mL IST broth. Using a dilution in 0.9% saline of 1:500 for Gram-negative organisms and 1:100 for Gram-positive organisms, the appropriate agar plates were inoculated using a multipoint inoculator.
# (§9) Plates were incubated at 37° C. in air for 18-20 hours.
# (§10) The MIC is the minimum amount of an antibiotic at which there is no visible growth of bacteria. Tiny single colonies or faint hazes were not counted as growth.
# [2] = test system: Pseudomonas aeruginosa NCTC 10662; assay: MIC, agar dilution (BSAC guidelines)
# Procedure: as §1, §2, §3, §4, §5, §6, §7, §8, §9, §10
# [3] = test system: Staphylococcus epidermidis ATCC 1228; assay: MIC, agar dilution (BSAC guidelines)
# Procedure: as §1, §2, §3, §4, §5, §6, §7, §8, §9, §10
# [4] = test system: Escherichia coli NCTC 10418; assay: MIC, agar dilution (BSAC guidelines)
# Procedure: as §1, §2, §3, §4, §5, §6, §7, §8, §9, §10
# [5] = test system: VISA, strain USA/VISA 5836; assay: MIC, agar dilution (BSAC guidelines); conditions: Staphylococcus aureus
# Procedure: as §1, §2, §3, §4, §5, §6, §7, §8, §9, §10
# [6] = test system: VISA, strain USA/VISA 5827; assay: MIC, agar dilution (BSAC guidelines); conditions: Staphylococcus aureus
# Procedure: as §1, §2, §3, §4, §5, §6, §7, §8, §9, §10
# [7] = test system: Enterococcus faecium (VRE) VanR B145344C LFE; assay: MIC, agar dilution (BSAC guidelines); conditions: E. faecium (VRE) VanR B145344C LFE
# Procedure: as §1, §2, §3, §4, §5, §6, §7, §8, §9, §10
# [8] = test system: Enterococcus faecium (VRE) E15 VanA ATCC 4147; assay: MIC, agar dilution (BSAC guidelines)
# Procedure: as §1, §2, §3, §4, §5, §6, §7, §8, §9, §10
# [9] = test system: Enterococcus faecium (VRE) E19 UAA/522 VanB; assay: MIC, agar dilution (BSAC guidelines); conditions: E. faecium (VRE) E19 UAA/522 VanB
# Procedure: as §1, §2, §3, §4, §5, §6, §7, §8, §9, §10
# [10] = test system: Enterococcus faecalis (VRE) E8 VanA; assay: MIC, agar dilution (BSAC guidelines); conditions: E. faecalis (VRE) E8 VanA
# Procedure: as §1, §2, §3, §4, §5, §6, §7, §8, §9, §10
# [11] = test system: Enterococcus gallinarum (VRE) E1 NCTC 12359 VanC1; assay: MIC, agar dilution (BSAC guidelines)
# Procedure: as §1, §2, §3, §4, §5, §6, §7, §8, §9, §10
# [12] = test system: Klebsiella pneumoniae ESBL 700603; assay: MIC, agar dilution (BSAC guidelines)
# Procedure: as §1, §2, §3, §4, §5, §6, §7, §8, §9, §10
# [13] = test system: Enterococcus faecium (VRE) NCTC 7171; assay: MIC, agar dilution (BSAC guidelines)
# Procedure: as §1, §2, §3, §4, §5, §6, §7, §8, §9, §10
# [14] = test system: VISA, strain VISA 3900 UK; assay: MIC, agar dilution (BSAC guidelines); conditions: Staphylococcus aureus
# Procedure: as §1, §2, §3, §4, §5, §6, §7, §8, §9, §10
# Gram-negative organisms = assay: Growth inhibition, summary of MIC testing; conditions: summary in words
# Procedure: as §1, §5, §8, §9, §10
# [15] = test system: strains of Staphylococci and Enterococci with reduced susceptibility to vancomycin; assay: Growth inhibition, summary of MIC testing; conditions: summary in words
# Procedure: as §1, §5, §8, §9, §10
# [16] = replicate 1, read-out: Minimum inhibitory concentration (MIC)
# [17] = replicate 2, read-out: Minimum inhibitory concentration (MIC)
# [18] = replicate 3, read-out: Minimum inhibitory concentration (MIC)
compound,measurement,setting,value
Clc1ccc(COC(Cn2ccnc2)c2ccc(Cl)cc2Cl)cc1 (centres unmarked) [Econazole],MIC,"[1]; ATCC19606, Acinetobacter Baumannii ATCC 19606, replicate 1, read-out: Minimum inhibitory concentration (MIC)",> 10 µg/mL
same,MIC,"[1]; ATCC19606, Acinetobacter Baumannii ATCC 19606, replicate 2, read-out: Minimum inhibitory concentration (MIC)",> 6 µg/mL
same,MIC,"[1]; ATCC19606, Acinetobacter Baumannii ATCC 19606, replicate 3, read-out: Minimum inhibitory concentration (MIC)",> 6 µg/mL
same,MIC,"[2]; NCTC10662, P. aeruginosa NCTC 10662, replicate 1, read-out: Minimum inhibitory concentration (MIC)",> 10 µg/mL
same,MIC,"[2]; NCTC10662, P. aeruginosa NCTC 10662, replicate 2, read-out: Minimum inhibitory concentration (MIC)",> 6 µg/mL
same,MIC,"[2]; NCTC10662, P. aeruginosa NCTC 10662, replicate 3, read-out: Minimum inhibitory concentration (MIC)",> 6 µg/mL
same,MIC,"[3]; ATCC1228, S. epidermidis ATCC 1228, replicate 1, read-out: Minimum inhibitory concentration (MIC)",4 µg/mL
same,MIC,"[3]; ATCC1228, S. epidermidis ATCC 1228, replicate 2, read-out: Minimum inhibitory concentration (MIC)",2 µg/mL
same,MIC,"[3]; ATCC1228, S. epidermidis ATCC 1228, replicate 3, read-out: Minimum inhibitory concentration (MIC)",2.5 µg/mL
same,MIC,"[4]; NCTC10418, E. coli NCTC 10418, replicate 1, read-out: Minimum inhibitory concentration (MIC)",> 10 µg/mL
same,MIC,"[4]; NCTC10418, E. coli NCTC 10418, replicate 2, read-out: Minimum inhibitory concentration (MIC)",> 6 µg/mL
same,MIC,"[4]; NCTC10418, E. coli NCTC 10418, replicate 3, read-out: Minimum inhibitory concentration (MIC)",> 6 µg/mL
same,MIC,[5]; [16],2 µg/mL
same,MIC,[5]; [17],4.5 µg/mL
same,MIC,[5]; [18],4 µg/mL
same,MIC,[6]; [16],1.5 µg/mL
same,MIC,[6]; [17],2 µg/mL
same,MIC,[6]; [18],2.5 µg/mL
same,MIC,[7]; [16],3.5 µg/mL
same,MIC,[7]; [17],5 µg/mL
same,MIC,[7]; [18],2.5 µg/mL
same,MIC,"[8]; E. faecium (VRE) E15 VanA ATCC 4147, replicate 1, read-out: Minimum inhibitory concentration (MIC)",3 µg/mL
same,MIC,"[8]; E. faecium (VRE) E15 VanA ATCC 4147, replicate 2, read-out: Minimum inhibitory concentration (MIC)",4.5 µg/mL
same,MIC,"[8]; E. faecium (VRE) E15 VanA ATCC 4147, replicate 3, read-out: Minimum inhibitory concentration (MIC)",3 µg/mL
same,MIC,[9]; [16],2 µg/mL
same,MIC,[9]; [17],4.5 µg/mL
same,MIC,[9]; [18],2 µg/mL
same,MIC,[10]; [16],7 µg/mL
same,MIC,[10]; [17],> 6 µg/mL
same,MIC,[10]; [18],> 6 µg/mL
same,MIC,"[11]; E. gallinarum (VRE) E1 NCTC 12359 VanC1, replicate 1, read-out: Minimum inhibitory concentration (MIC)",3 µg/mL
same,MIC,"[11]; E. gallinarum (VRE) E1 NCTC 12359 VanC1, replicate 2, read-out: Minimum inhibitory concentration (MIC)",5.5 µg/mL
same,MIC,"[11]; E. gallinarum (VRE) E1 NCTC 12359 VanC1, replicate 3, read-out: Minimum inhibitory concentration (MIC)",3 µg/mL
same,MIC,"[12]; ESBL700603, K. pneumoniae ESBL 700603, replicate 1, read-out: Minimum inhibitory concentration (MIC)",> 10 µg/mL
same,MIC,"[12]; ESBL700603, K. pneumoniae ESBL 700603, replicate 2, read-out: Minimum inhibitory concentration (MIC)",> 6 µg/mL
same,MIC,"[12]; ESBL700603, K. pneumoniae ESBL 700603, replicate 3, read-out: Minimum inhibitory concentration (MIC)",> 6 µg/mL
same,MIC,"[13]; E. faecium (VRE) NCTC 7171, replicate 1, read-out: Minimum inhibitory concentration (MIC)",4 µg/mL
same,MIC,"[13]; E. faecium (VRE) NCTC 7171, replicate 2, read-out: Minimum inhibitory concentration (MIC)",> 6 µg/mL
same,MIC,"[13]; E. faecium (VRE) NCTC 7171, replicate 3, read-out: Minimum inhibitory concentration (MIC)",> 6 µg/mL
same,MIC,[14]; [16],1.5 µg/mL
same,MIC,[14]; [17],2 µg/mL
same,MIC,[14]; [18],2 µg/mL
same,activity against Gram-negative organisms,Gram-negative organisms,no significant activity
same,activity against strains of Staphylococci and Enterococci with reduced susceptibility to vancomycin,[15],good activity; also recorded: capable of inhibiting the growth
